In ChEMBL document CHEMBL1201862, “PubChem BioAssay data set” (2004):
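Protocol summary: plate cells (96-well), add compound at 5 concentrations, incubate 48 h, interpolate endpoints linearly. Abbreviation: GI50, concentration required for 50% inhibition of growth.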 Calls of active or inactive are those of the source. Rule as the data show it: active = GI50 up to about 1.1 µM and inactive = higher.

Key:
Assay in all cases: growth of human tumour cells (NCI), 48 h
SW-620 = tested on: SW-620
HCC 2998 = tested on: HCC 2998
SF-539 = tested on: SF-539
UACC-62 = tested on: UACC-62
NCI-H522 = tested on: NCI-H522
HCT-116 = tested on: HCT-116
ACHN = tested on: ACHN
HL-60 = tested on: HL-60
UACC-257 = tested on: UACC-257
UO-31 = tested on: UO-31
NCI-H226 = tested on: NCI-H226
EKVX = tested on: EKVX
RPMI-8226 = tested on: RPMI-8226
NCI-H23 = tested on: NCI-H23
K562 = tested on: K562
SK-MEL-2 = tested on: SK-MEL-2
SK-MEL-5 = tested on: SK-MEL-5
PC-3 = tested on: PC-3
MCF7 = tested on: MCF7

Compound	GI50 (SW-620)	GI50 (HCC 2998)	GI50 (SF-539)	GI50 (UACC-62)	GI50 (NCI-H522)	GI50 (HCT-116)	GI50 (ACHN)	GI50 (HL-60)	GI50 (UACC-257)	GI50 (UO-31)	GI50 (NCI-H226)	GI50 (EKVX)	GI50 (RPMI-8226)	GI50 (NCI-H23)	GI50 (K562)	GI50 (SK-MEL-2)	GI50 (SK-MEL-5)	GI50 (PC-3)	GI50 (MCF7)
Nc1nc(-c2ccccc2)cc(-c2ccccc2O)n1	41.1 µM (inactive)	40.7 µM (inactive)	37.4 µM (inactive)	59.2 µM (inactive)	22.9 µM (inactive)	20.7 µM (inactive)	27.2 µM (inactive)	16.5 µM (inactive)	73.8 µM (inactive)	8.15 µM (inactive)	19 µM (inactive)	23.7 µM (inactive)	22.6 µM (inactive)	43.3 µM (inactive)	39.1 µM (inactive)				
O=C(Cc1nc2ccccc2s1)C(=O)Nc1cccc(Cl)c1	> 100 µM (inactive)	> 100 µM (inactive)	> 100 µM (inactive)	> 100 µM (inactive)	> 100 µM (inactive)	> 100 µM (inactive)	> 100 µM (inactive)	> 100 µM (inactive)	> 100 µM (inactive)	> 100 µM (inactive)	> 100 µM (inactive)	> 100 µM (inactive)	> 100 µM (inactive)	> 100 µM (inactive)	> 100 µM (inactive)	> 100 µM (inactive)	> 100 µM (inactive)		
COc1cc(CCCC(O)COc2cccc3c2C2(O)CCCCCC32)cc(OC)c1 (stereo not drawn)	17.2 µM (inactive)	4.97 µM (inactive)	13.4 µM (inactive)	16.4 µM (inactive)	24.9 µM (inactive)	17.7 µM (inactive)	15.7 µM (inactive)	22.2 µM (inactive)	15.6 µM (inactive)	15.4 µM (inactive)	16.2 µM (inactive)	16 µM (inactive)	18.5 µM (inactive)	16.9 µM (inactive)	11.6 µM (inactive)	20.7 µM (inactive)	7.85 µM (inactive)		
Cc1nc2sccn2c1C(=O)NC(=O)Nc1ccc(Cl)cc1	> 100 µM (inactive)	> 100 µM (inactive)	41.2 µM (inactive)	> 100 µM (inactive)	57 µM (inactive)	46.2 µM (inactive)	> 100 µM (inactive)	> 100 µM (inactive)	> 100 µM (inactive)	59.2 µM (inactive)	71.9 µM (inactive)	> 100 µM (inactive)	> 100 µM (inactive)	35.7 µM (inactive)	> 100 µM (inactive)	> 100 µM (inactive)	> 100 µM (inactive)		
CN(CN1C(=O)C2Cc3ccccc3CN2C1=O)c1ccccn1 (stereo not drawn)	> 100 µM (inactive)	> 100 µM (inactive)	> 100 µM (inactive)	> 100 µM (inactive)	> 100 µM (inactive)		> 100 µM (inactive)	> 100 µM (inactive)		> 100 µM (inactive)	> 100 µM (inactive)		> 100 µM (inactive)	> 100 µM (inactive)	> 100 µM (inactive)	> 100 µM (inactive)	> 100 µM (inactive)		
Nc1ccc2ncc(NCc3ccc(F)cc3)nc2c1	> 100 µM (inactive)	> 100 µM (inactive)	39.6 µM (inactive)	54.2 µM (inactive)	83.2 µM (inactive)	> 100 µM (inactive)	64.9 µM (inactive)	95.9 µM (inactive)	> 100 µM (inactive)	16.4 µM (inactive)	40.9 µM (inactive)	62.7 µM (inactive)	62.2 µM (inactive)	> 100 µM (inactive)	87.9 µM (inactive)	> 100 µM (inactive)	48.1 µM (inactive)		
CCOC(=O)/C(C(C)=O)=C1/N[C@H](C(=O)OCC)CS1	> 100 µM (inactive)	> 100 µM (inactive)	10 µM (inactive)	> 100 µM (inactive)	> 100 µM (inactive)	> 100 µM (inactive)	> 100 µM (inactive)	> 100 µM (inactive)	> 100 µM (inactive)	> 100 µM (inactive)	> 100 µM (inactive)	> 100 µM (inactive)	> 100 µM (inactive)	> 100 µM (inactive)	> 100 µM (inactive)	> 100 µM (inactive)	> 100 µM (inactive)		
CC1=CC2CC(C)=C(CC[C@]3(C)CC[C@H]([C@@H](C)C(=O)O)OO3)C(C)(C)C2CC1 (stereo partly drawn)	0.177 µM (active)	0.292 µM (active)	1.26 µM (inactive)	1.49 µM (inactive)	0.171 µM (active)	0.457 µM (active)	1.3 µM (inactive)	0.0863 µM (active)	1.53 µM (inactive)	0.984 µM (active)	1.85 µM (inactive)	1.91 µM (inactive)	0.304 µM (active)	0.9 µM (active)	0.208 µM (active)	1.6 µM (inactive)	1.26 µM (inactive)		
COc1cc(C(=O)NNC(=O)c2cc(Br)ccc2NC(=O)c2cccs2)cc(OC)c1OC	28.1 µM (inactive)		15.4 µM (inactive)	16.7 µM (inactive)	20.7 µM (inactive)	18.7 µM (inactive)	17 µM (inactive)	14.8 µM (inactive)	22.5 µM (inactive)	14.4 µM (inactive)	13.7 µM (inactive)	6.65 µM (inactive)	13.2 µM (inactive)	19.4 µM (inactive)	< 0.01 µM (active)	18.6 µM (inactive)	13.8 µM (inactive)	24 µM (inactive)	14.4 µM (inactive)
CC(=O)O[C@@]1(C)[C@@H](C)C(=O)O[C@@H]2CCN3CC=C(COC(=O)[C@]1(C)O)[C@H]23	> 100 µM (inactive)	> 100 µM (inactive)	> 100 µM (inactive)	> 100 µM (inactive)	> 100 µM (inactive)	> 100 µM (inactive)	> 100 µM (inactive)	> 100 µM (inactive)	> 100 µM (inactive)	> 100 µM (inactive)	> 100 µM (inactive)		> 100 µM (inactive)	> 100 µM (inactive)	> 100 µM (inactive)	> 100 µM (inactive)	> 100 µM (inactive)		
COc1ccccc1NC(=O)CC(=O)N1N=C(c2ccccc2)C(/N=N/c2ccc(Cl)cc2)C1=O (stereo not drawn)	45.6 µM (inactive)	45.6 µM (inactive)	36.8 µM (inactive)	25.7 µM (inactive)	32.1 µM (inactive)	30.1 µM (inactive)	19.2 µM (inactive)	52 µM (inactive)	65 µM (inactive)	18.2 µM (inactive)	27.5 µM (inactive)	37.2 µM (inactive)	> 100 µM (inactive)	34.4 µM (inactive)	29 µM (inactive)	69.7 µM (inactive)	14.6 µM (inactive)		
O=C1C[C@H]2CCCN2[C@@H](c2ccccc2)C1	> 100 µM (inactive)	> 100 µM (inactive)	> 100 µM (inactive)	> 100 µM (inactive)	> 100 µM (inactive)	> 100 µM (inactive)	> 100 µM (inactive)	> 100 µM (inactive)	> 100 µM (inactive)	> 100 µM (inactive)	> 100 µM (inactive)	> 100 µM (inactive)	> 100 µM (inactive)	> 100 µM (inactive)	> 100 µM (inactive)	> 100 µM (inactive)	> 100 µM (inactive)		
COc1cccc2nc3c(C(=O)NCCN(C)C)cccc3nc12	5.42 µM (inactive)	10.8 µM (inactive)	4.27 µM (inactive)	12.6 µM (inactive)	11.9 µM (inactive)	3.79 µM (inactive)	4.3 µM (inactive)	4.51 µM (inactive)	6.03 µM (inactive)	12.2 µM (inactive)	5.27 µM (inactive)	12.6 µM (inactive)	6.49 µM (inactive)	11.8 µM (inactive)	3.76 µM (inactive)	8.73 µM (inactive)	11.8 µM (inactive)		
[N-]=[N+]=C1C(=O)C2CC3CC1CC2C3 (stereo not drawn)	81.1 µM (inactive)	> 100 µM (inactive)	> 100 µM (inactive)	> 100 µM (inactive)	> 100 µM (inactive)	> 100 µM (inactive)	> 100 µM (inactive)	> 100 µM (inactive)	> 100 µM (inactive)	> 100 µM (inactive)	> 100 µM (inactive)	> 100 µM (inactive)	> 100 µM (inactive)	> 100 µM (inactive)	> 100 µM (inactive)	> 100 µM (inactive)	> 100 µM (inactive)		
COc1cc2c(cn1)[nH]c1ccccc12	46.3 µM (inactive)	> 100 µM (inactive)	> 100 µM (inactive)	53 µM (inactive)	61.2 µM (inactive)	> 100 µM (inactive)	> 100 µM (inactive)	> 100 µM (inactive)	85.1 µM (inactive)	> 100 µM (inactive)	> 100 µM (inactive)	> 100 µM (inactive)	> 100 µM (inactive)	> 100 µM (inactive)	> 100 µM (inactive)	> 100 µM (inactive)	47.4 µM (inactive)		
CC(C)(C)c1ccc(-c2nc3ccccc3c(=O)o2)cc1	48.2 µM (inactive)	54.8 µM (inactive)	40.6 µM (inactive)	30.3 µM (inactive)	30.3 µM (inactive)	38.7 µM (inactive)	33.7 µM (inactive)	23.1 µM (inactive)	81.3 µM (inactive)	43.1 µM (inactive)		30.7 µM (inactive)	25.5 µM (inactive)	34.3 µM (inactive)	35.6 µM (inactive)	22.8 µM (inactive)	17 µM (inactive)	38.4 µM (inactive)	27.7 µM (inactive)
